Experimental data as given in US12552811B2, “Immunosuppressant, and preparation method therefor and use thereof” (Abbisko Therapeutics Co., Ltd., priority 2020, dated 2026).

Experiments:
[1] = Pharmacokinetic assay in mice; type: in vivo; conditions: male, mouse; ICR mice, PO 10 mg/kg, plasma
Protocol: III. Pharmacokinetic Assay in Mice
The purpose of this study was to study the pharmacokinetic behaviors of some compounds of the present invention, and administration routes were: per oral administration (PO) to ICR mice at a dose of 10 mg/kg.
The compounds used in this test came from the compounds of the specific examples of the present invention.
ICR mice, male, N=3, with the original source of Shanghai Sippr-BK Laboratory Animal Co. Ltd.
2.3 Preparation and Administration of Drug
The compounds were weighed, and dissolved in a solvent of 0.5% SDS+0.5% CMCNa. The mixture solutions were mixed well by shaking and ultrasonic treatment to obtain colorless clear solutions. The solutions were orally administered to nine mice after an overnight fast. The dosage of administration was 10 mg/kg.
• 1) With about 90 μL/time point, blood was drawn from the submaxillary vein, and heparin sodium was added for anticoagulation. The blood samples were placed onto the ice, and were centrifuged (centrifugation conditions: 8000 r/min, 6 min, 2-8° C.) within 1 hr to obtain plasmas. • 2) The time points for blood sampling were at 0 hr, 0.25 hr, 0.5 hr, 1 hr, 2 hrs, 4 hrs, 6 hrs, 8 hrs and 24 hrs after administration. The samples were stored in a refrigerator at −20° C. • 3) 40 μL of plasma sample was added to 160 μL of cold acetonitrile containing an internal standard, and the mixture solution was vortexed for 3 min and centrifuged at 11,000 r/min for 5 min. • 4) 100 μL of supernate was taken and added to 100 μL of water, and 5 μL of the sample was taken and analyzed by LC/MS/MS.
The compounds from some representative examples of the present invention were administered and tested according to the above method, and their prototype compounds were detected.

[2] = Jurkat reporter gene cellular assay; type: cell-based; conditions: Homo sapiens; Jurkat/NF-κB-luc/PD1 + Raji-PD-L1 coculture, OKT3 1 μg/mL, 6 hrs, activation fold; read-out: Cell Activity EC50
Protocol: The effect of compounds of the examples of the present invention and positive compounds on the interaction between PD-1 and PD-L1 expressed on cell surfaces, and the related influence on T cell functions, were determined by a Jurkat reporter gene cellular assay.
Briefly, the reporter gene plasmid of NF-κB-luc and the plasmid of human PD-1 were transfected into Jurkat cells to establish a stably transfected cell line capable of stably expressing both PD-1 and NF-κB-Luc reporter genes; the expression level of PD-1 on the cell surface was confirmed by flow cytometry; and the expression of the reporter gene was confirmed via the response of the reporter gene stimulated by OKT-3 and Raiji cells.
In addition, the plasmid of human PD-L1 was transfected into Raji cells to obtain a cell line capable of stably expressing PD-L1. Jurkat/NF-κB-luc/PD1 cells and Raji-PD-L1 cells were then cocultured and stimulated with OKT-3. On this basis, the compounds were added, and the enhancement of the signal pathway of T cell activation by the inhibitory effect of the compounds on the interaction between PD-1 and PD-L1 was evaluated by readings of reporter gene responses. The specific experimental process was as follows: • 1) 30 μL of compound or antibody solution was added to each well of a white 96-well plate (coming, 3610) at different diluted concentrations, and 10 μL of OKT3 (Biolegend, 317326) was then added (the final concentration of OKT3: 1 μg/mL); • 2) 20 μL of Raji-PD-L1 cell suspension was added to each well with 5*10^4 cells for each well, and was incubated in an incubator for 20 min: • 3) 20 μL of Jurkat/NF-κb-luc/PD-1 cell suspension was added to each well with 5*10^4 cells for each well, and well mixed, and 6 hrs later, Bright-glo (Promega, E2620) was applied and plates were read on Envision; • 4) The reading of each well treated with the compound was compared with the reading of each well treated with DMSO to obtain the activation fold of the compound; • 5) EC50 values of compounds and positive compounds of the examples of the present invention were determined by non-linear regression analysis of activation folds at different compound concentrations.

[3] = molecular target: interaction between PD-1 and PD-L1 (Homo sapiens (Human), UniProt Q9NZQ7); experiment: PD1-PDL1 HTRF binding activity test; conditions: Cisbio PD-1/PD-L1 binding assay kit
Chain of interaction between PD-1 and PD-L1 (Q9NZQ7 19-238): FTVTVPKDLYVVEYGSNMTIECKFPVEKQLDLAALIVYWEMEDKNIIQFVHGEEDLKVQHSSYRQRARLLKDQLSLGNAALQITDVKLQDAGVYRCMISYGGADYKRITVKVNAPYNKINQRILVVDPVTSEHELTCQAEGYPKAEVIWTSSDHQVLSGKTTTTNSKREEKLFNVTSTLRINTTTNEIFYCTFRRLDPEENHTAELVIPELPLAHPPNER
Protocol: I. PD1-PDL1 HTRF Binding Activity Test
The effect of compounds of the examples of the present invention on the interaction between PD-1 and PD-L1 was determined by the PD-1/PD-L1 binding assay kit from Cisbio (#64ICP01PEG or 64ICP01PEH). The detailed experimental process was as follows: • 1) Pre-diluted compound solution, 4 μL of Tag1-PD-L1 and 4 μL of Tag2-PD1 were added to each well of a 384-well plate: • 2) After the mixture was incubated at room temperature for 15 min, 5 μL of anti-Tag1-Eu3+ antibody and 5 μL of anti-Tag2-XL665 antibody were then added; • 3) After incubated for 2 hrs at room temperature or overnight at 4° C., plates were read on Envision of Pelkin Elmer; and readings at 665 nm and 620 nm were recorded, and the ratio of the two readings was taken as a reading for each well; • 4) The reading of each well after compound treatment was compared with the reading of DMSO treated wells to obtain the percent inhibition of the compound; • 5) IC50 values of compounds and positive compounds of the examples of the present invention were determined by non-linear regression analysis of percent inhibition at different compound concentrations. II. Jurkat Reporter Gene Cellular Assay

Row | SMILES | AUC(0-t) [1] [ng·h/mL] | Cmax [1] [ng/mL] | MRT [1] [h] | Tmax [1] [h] | half-life [1] [h] | EC50 [2] [nM] | IC50 [3] [nM]
1 | CC(C)N1CCc2cc(C(=O)Nc3cccc(-c4cccc(NC(=O)c5nc6c(n5C)CCN(CCC57CCC(C(=O)O)(CC5)C7)C6)c4Cl)c3Cl)ncc2C1 [Example 1, 4-(2-(2-((2,2′-dichloro-3′-(7-isopropyl-5,6,7,8-tetrahydro-2,7-naphthyridine-3-carboxamido)-[1,1′-biphenyl]-3-yl)carbamoyl)-1-methyl-1,4,6,7-tetrahydro-5H-imidazo[4,5-c]pyridin-5-yl)ethyl)bicyclo[2.2.1]heptane-1-carboxylic acid] | 18400 | 2850 | 4.9 | 0.5 | 3.6 | 53.8 | 0.73
2 | CN1CCc2cc(C(=O)Nc3cccc(-c4cccc(NC(=O)c5nc6c(n5C)CCN(CCC57CCC(C(=O)O)(CC5)C7)C6)c4Cl)c3Cl)ncc2C1 [Example 2, 4-(2-(2-((2,2′-dichloro-3′-(7-methyl-5,6,7,8-tetrahydro-2,7-naphthyridine-3-carboxamido)-[1,1′-biphenyl]-3-yl)carbamoyl)-1-methyl-1,4,6,7-tetrahydro-5H-imidazo[4,5-c]pyridin-5-yl)ethyl)bicyclo[2.2.1] heptane-1-carboxylic acid] | 1820 | 2320 | 1.8 | 0.083 | 4 | 50 | 0.178
3 | CC(C)N1CCc2cc(/C(F)=C/c3cccc(-c4cccc(NC(=O)c5nc6c(n5C)CCN(CCC57CCC(C(=O)O)(CC5)C7)C6)c4Cl)c3Cl)ncc2C1 [Example 25, (Z)-4-(2-(2-((2,2′-dichloro-3′-(2-fluoro-2-(7-isopropyl-5,6,7,8-tetrahydro-2,7-naphthyridin-3-yl)vinyl)-[1,1′-biphenyl]-3-yl)carbamoyl)-1-methyl-1,4,6,7-tetrahydro-5H-imidazo[4,5-c]pyridin-5-yl)ethyl) bicyclo[2.2.1]heptane-1-carboxylic acid] |  |  |  |  |  | 86.3 | 0.358
4 | CC(C)N1CCc2cc(C(=O)Nc3cccc(-c4cccc(NC(=O)c5nc6c(n5C)CCN(CCC57CCC(C(=O)O)(CC5)CC7)C6)c4Cl)c3Cl)ncc2C1 [Example 58, 4-(2-(2-((2,2′-dichloro-3′-(7-isopropyl-5,6,7,8-tetrahydro-2,7-naphthyridine-3-carboxamido)-[1,1′-biphenyl]-3-yl)carbamoyl)-1-methyl-1,4,6,7-tetrahydro-5H-imidazo[4,5-c]pyridin-5-yl)ethyl)bicyclo [2.2.2]octane-1-carboxylic acid] | 13900 | 1630 | 5.7 | 1 | 3.8 | 53.5 | 0.73
5 | CC(C)N1CCc2cc(C(=O)Nc3cccc(-c4cccc(NC(=O)c5nc6c(n5C)CCN(CCC57C8C9C5C5C7C8C95C(=O)O)C6)c4Cl)c3Cl)ncc2C1 (stereo not shown) [Example 59, 4-(2-(2-((2,2′-dichloro-3′-(7-isopropyl-5,6,7,8-tetrahydro-2,7-naphthyridine-3-carboxamido)-[1,1′-biphenyl]-3-yl)carbamoyl)-1-methyl-1,4,6,7-tetrahydro-5H-imidazo[4,5-c]pyridin-5-yl)ethyl)cubane-1-carboxylic acid] | 2300 | 616 | 2.4 | 0.5 | 1.2 | 33.8 | 0.904
6 | CC(C)N1CCc2cc(C(=O)Nc3cccc(-c4cccc(NC(=O)c5nc6c(n5C)CCN(CCC57CC(C(=O)O)(C5)C7)C6)c4Cl)c3Cl)ncc2C1 [Example 60, 3-(2-(2-((2,2′-dichloro-3′-(7-isopropyl-5,6,7,8-tetrahydro-2,7-naphthyridine-3-carboxamido)-[1,1′-biphenyl]-3-yl)carbamoyl)-1-methyl-1,4,6,7-tetrahydro-5H-imidazo[4,5-c]pyridin-5-yl)ethyl)bicyclo [1.1.1]pentane-1-carboxylic acid] | 4250 | 2420 | 2 | 0.5 | 1.6 | 29.4 | 0.253
